Our source for the IC50 values is BindingDB's records for doi:10.1016/j.bmcl.2013.05.024 (Janssen Research and Development, 2014).

pIC50: −log10 of the molar value.

The nature of this experiment: Antagonist activity at CCR2 receptor in human THP1 cells assessed as inhibition of MCP-1 induced chemotaxis after 3 hrs.

On to `COC1COCCC1N[C@@H]1C[C@H]2CN(C(=O)OCCN3CCOCC3)C[C@@]2(C(=O)N2CCc3ncc(C(F)(F)F)cc3C2)C1` (some centres undefined), for which the pIC50 was 7.01. For the molecule `COC1COCCC1N[C@@H]1C[C@H]2CN(C(=O)OCC(C)(C)C)C[C@@]2(C(=O)N2CCc3ncc(C(F)(F)F)cc3C2)C1` (some centres undefined), the pIC50 is 7.00.

Regarding `COC1COCCC1N[C@@H]1C[C@H]2CN(C(=O)OCC(C)C)C[C@@]2(C(=O)N2CCc3ncc(C(F)(F)F)cc3C2)C1` (some centres undefined), the pIC50 is 7.68. The figure for `COC(=O)N1C[C@@H]2C[C@@H](NC3CCOCC3OC)C[C@]2(C(=O)N2CCc3ncc(C(F)(F)F)cc3C2)C1` (some centres undefined) is 7.16; for `COC1COCCC1N[C@@H]1C[C@H]2CN(C(=O)NC(C)C)C[C@@]2(C(=O)N2CCc3ncc(C(F)(F)F)cc3C2)C1` (some centres undefined) it is 7.09. Consider `COCCOC(=O)N1C[C@@H]2C[C@@H](NC3CCOCC3OC)C[C@]2(C(=O)N2CCc3ncc(C(F)(F)F)cc3C2)C1` (some centres undefined), for which the pIC50 is 7.39.

As for `COC1COCCC1N[C@@H]1C[C@H]2CN(C(=O)OCC3CCOCC3)C[C@@]2(C(=O)N2CCc3ncc(C(F)(F)F)cc3C2)C1` (some centres undefined), the pIC50 was 7.19. Regarding `COC1COCCC1N[C@@H]1C[C@H]2CN(C(N)=NC#N)C[C@@]2(C(=O)N2CCc3ncc(C(F)(F)F)cc3C2)C1` (some centres undefined), the pIC50 was 7.54. On to `COC1COCCC1N[C@@H]1C[C@H]2CN(C(=O)C#CC3CC3)C[C@@]2(C(=O)N2CCc3ncc(C(F)(F)F)cc3C2)C1` (some centres undefined), for which the pIC50 was 7.41. The figure for `CNC(=O)N1C[C@@H]2C[C@@H](NC3CCOCC3OC)C[C@]2(C(=O)N2CCc3ncc(C(F)(F)F)cc3C2)C1` (some centres undefined) is 7.15; for `COC1COCCC1N[C@@H]1C[C@H]2CN(c3ccccc3)C[C@@]2(C(=O)N2CCc3ncc(C(F)(F)F)cc3C2)C1` (some centres undefined) it is 7.05; for `COC1COCCC1N[C@@H]1C[C@H]2CN(C(=O)OCc3ccccc3)C[C@@]2(C(=O)N2CCc3ncc(C(F)(F)F)cc3C2)C1` (some centres undefined) it is 6.72. The figure for `COC1COCCC1N[C@@H]1C[C@H]2CN(C(=O)NCc3ccccc3)C[C@@]2(C(=O)N2CCc3ncc(C(F)(F)F)cc3C2)C1` (some centres undefined) is 6.66; for `COC1COCCC1N[C@@H]1C[C@H]2CN(C(=O)OCCNC(C)=O)C[C@@]2(C(=O)N2CCc3ncc(C(F)(F)F)cc3C2)C1` (some centres undefined) it is 7.74. The figure for `COC1COCCC1N[C@@H]1C[C@H]2CN(C(=O)OCCN3CCCC3)C[C@@]2(C(=O)N2CCc3ncc(C(F)(F)F)cc3C2)C1` (some centres undefined) is 7.55; for `COC1COCCC1N[C@@H]1C[C@H]2CN(C(C)=O)C[C@@]2(C(=O)N2CCc3ncc(C(F)(F)F)cc3C2)C1` (some centres undefined) it is 6.64. As for `COC1COCCC1N[C@@H]1C[C@H]2CN(C(=O)/C=C/C(C)(C)C)C[C@@]2(C(=O)N2CCc3ncc(C(F)(F)F)cc3C2)C1` (some centres undefined), the pIC50 is 7.06. The figure for `COC1COCCC1N[C@@H]1C[C@H]2CN(C(=O)Oc3ccccc3)C[C@@]2(C(=O)N2CCc3ncc(C(F)(F)F)cc3C2)C1` (some centres undefined) is 6.02; for `COC1COCCC1N[C@@H]1C[C@H]2CN(C(N)=O)C[C@@]2(C(=O)N2CCc3ncc(C(F)(F)F)cc3C2)C1` (some centres undefined) it is 7.57.
